Structures can show the parent of a compound that is named as a salt. Where two headings read alike, the source gives them in different places. A value given as a limit tells only on which side of the number the result lay.

The test system of test [1] is K562 human erythroleukemia. Description: MTT dose response cytotoxicity, K562 (Table 1). It counts as cell-based. Conditions: read-out: DRUG IC50. The method, then: (§1) Cytotoxicity experiments on AHVB were performed as direct comparisons with vincristine and navelbine in order to assess its inherent antineoplastic profile against a variety of tumour cell types relative to other relevant vinca alkaloids. The cytotoxicity of AHVB was investigated in vitro against a panel of tumour cell lines of varying lineage in order to determine the specificity of its antitumour activity with respect to cell type. The tumour lines studied were P388 lymphocytic leukemia (a murine lymphocytic leukemia), Noble (Nb) rat U17 lymphoma, MCF7 human breast carcinoma, H460 human non-small cell lung carcinoma, K562 human erythrokeukemia and LS180 human colon carcinoma based on established NCI in vitro new anticancer drug cytotoxicity screening protocols.
(§2) Standard dose response cytotoxicity assays (R. Mosmass, J. Immunol. Meth., 65:55-64, 1983) were utilized to determine the IC50 (drug concentration required to induce 50% inhibition of tumour cell growth) for vincristine, navelbine and AHVB. The indicated cell lines were obtained from either the ATCC or NCI tumor repository and were cultured in tissue culture media by standard techniques well known to those skilled in the art, prior to dilution to a defined cell concentration required for the studies in 96 well plates.
(§3) A wide range of drug concentrations were exposed to tumour cells growing at log phase in 96-well microtitre plates. Cell concentrations depended on the cell line as well as the length of time to be cultured. Typically, P388 cells were plated at a concentration of 30,000, 2,000 and 750 cells per well for studies lasting 1, 3 and 7 days, respectively MCF7 cells were plated at a concentration of 7,000 and 1,500 cells per well for studies lasting 3 and 7 days, respectively. H460 cells were plated at a concentration of 2,500 and 1,000 cells per well for studies lasting 3 and 7 days, respectively. K562 cells were plated at a concentration of 1,500 and 10,000 cells per well for studies lasting 1 and 3 days, respectively. LS180 cells were plated at a concentration of 5,000 and […] cells per well for studies lasting 3 and 7 days, respectively. After plating all cell lines were incubated (CO2 incubator at 37° C., 5% CO2) for 24 hours prior to addition of the cytotoxic agent (See Table 1). Subsequently the plates were incubated for the indicated time period. At specified times, cells were washed and subsequently exposed to the dye inclusion marker MTT (3-(4,5-dimethylthiazol-2-yl)-2,5diphenyl tetrazolium), which accumulated into viable cells. MTT was added to the cells at a final concentration of 50 μg per well. After a 4 hour incubation, the cells were washed free of media and unreacted MTT, prior to addition of DMSO which was required to solubilize the insoluble formazan precipitate that formed in viable cells. After the sample was mixed through repeated pipetting, the colored product was measured using a plate reader operating at 570 nm. The absorbance values obtained for cells cultured in the absence of drug was assumed to represent 100% viability. Experiments were repeated to substantiate any differences noted between […] and other vinca alkaloids.

The test system of test [2] is P388 murine leukemia cells. Nature of the test: MTT dose response cytotoxicity, P388 (Table 1, FIG. 5). The test is classed as cell-based. The conditions noted are these: Mus musculus, read-out: DRUG IC50. As to the method: as §1, §2, §3
A cytotoxicity curve was generated to estimate the IC50 of vincristine, navelbine and AHVB in the murine P388 cell line (see FIG. 5). In this study, P388 cells derived from an ascitic tumor grown in BDF1 were first separated from red cells employing Ficoll-Paque. Isolated while cells were washed twice then placed in serum containing tissue culture media (1×10^5 cells per ml of RPMI 1640 supplemented with L-glutamine, penicillin, streptomycin and 10% fetal bovine serum) and cultured for 2 hours. All non adherent cells were collected and that cell population was defined as P388 cells and used for cytotoxicity assays 24 hours later. Cytotoxicity assays were performed as described in the notes to Table 1. The drug concentrations used are indicated on the X-axis. […]

Setting [3] is: 24 h, K562, exposure time 1 day.
The mark [4] stands for this setting: 72 h, K562, exposure time 3 days.
[5] abbreviates: 24 h, P388, exposure time 1 day.
The mark [6] stands for this setting: 72 h, P388, exposure time 3 days.
[7] abbreviates: 168 h, P388, exposure time 7 days.

A word on the IC50: it is the concentration needed to halve the response being measured. As to `CCC1=CC2CN(CCc3c([nH]c4ccccc34)C(C(=O)OC)(c3cc4c(cc3OC)N(C)C3C(O)(C(=O)OC)C(OC(C)=O)C5(CC)C=CCN6CCC43C65)C2)C1` (stereo not drawn) [AHVB, 3',4'-anhydrovinblastine], the IC50 was above 0.05 µM in test [1] (K562, 24 h); 0.0188 ± 0.0088 µM in test [1] (K562, 72 h); 0.14 ± 0.053 µM in test [2] (P388, 24 h); 0.015 ± 0.0087 µM in test [2] (P388, 72 h); 0.02 µM in test [2] (P388, 168 h).
Regarding `CCC1=C[C@@H]2CN(C1)Cc1c([nH]c3ccccc13)[C@@](C(=O)OC)(c1cc3c(cc1OC)N(C)[C@H]1[C@@](O)(C(=O)OC)[C@H](OC(C)=O)[C@]4(CC)C=CCN5CC[C@]31[C@@H]54)C2` [navelbine, 3',4'-didehydro-4'-deoxy-C'-norvincaleukoblastine-di-L-tartrate], the half-maximal inhibitory concentration (IC50) in test [1] (setting [3]) was above 0.05 µM; in test [1] (setting [4]), 0.0025 ± 0.0022 µM; in test [2] (setting [5]), 0.02 ± 0.01 µM; in test [2] (setting [6]), 0.0007 ± 0.0003 µM; in test [2] (setting [7]), 0.0025 µM.
On to `CC[C@]1(O)C[C@H]2CN(CCc3c([nH]c4ccccc34)[C@@](C(=O)OC)(c3cc4c(cc3OC)N(C=O)[C@H]3[C@@](O)(C(=O)OC)[C@H](OC(C)=O)[C@]5(CC)C=CCN6CC[C@]43[C@@H]65)C2)C1` [vincristine, Sulfate of 22-oxovincaleukoblastine], for which the 50% inhibitory concentration (IC50) in test [1] (setting [3]) is above 0.05 µM; in test [1] (setting [4]) it was 0.0015 ± 0.0004 µM; in test [2] (setting [5]), 0.011 ± 0.0036 µM; in test [2] (setting [6]), 0.001 ± 0.0003 µM; in test [2] (setting [7]) it was 0.002 µM.

(Values after patent US6011041A, “Use of anhydrovinblastine” (priority 1996, dated 2000).)
